{
  "source": "ChEMBL document CHEMBL6109139",
  "about": "“Rational Design of the First Dual Agonist at Trace Amine-Associated Receptor 1 and 5-HT2C Receptors Based on Binding Pocket Similarity for the Treatment of Schizophrenia and Alzheimer's Disease-Related Psychosis” (J Med Chem, 2025)",
  "key": {"[1]": {"molecular_target": "T1, 5-hydroxytryptamine receptor 2C (Homo sapiens, UniProt P28335)", "T1 sequence (P28335 whole entry)": "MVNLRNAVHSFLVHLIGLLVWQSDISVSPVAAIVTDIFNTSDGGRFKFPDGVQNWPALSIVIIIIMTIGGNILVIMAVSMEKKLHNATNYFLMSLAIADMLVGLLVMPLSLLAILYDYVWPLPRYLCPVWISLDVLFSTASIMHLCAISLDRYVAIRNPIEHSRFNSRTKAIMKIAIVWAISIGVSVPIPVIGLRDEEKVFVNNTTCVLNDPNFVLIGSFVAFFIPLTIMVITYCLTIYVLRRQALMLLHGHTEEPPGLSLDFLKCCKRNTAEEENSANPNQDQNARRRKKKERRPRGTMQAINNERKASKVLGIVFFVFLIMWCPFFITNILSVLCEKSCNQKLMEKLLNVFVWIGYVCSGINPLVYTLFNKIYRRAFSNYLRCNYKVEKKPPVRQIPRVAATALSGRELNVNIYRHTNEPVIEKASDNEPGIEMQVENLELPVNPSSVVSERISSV", "test": "Agonist activity at recombinant human 5-HT2CR expressed in HEK293 cells incubated for 2 hrs by FLIPR calcium assay", "assay_type": "functional, cell-based"}, "[2]": {"test": "Ratio of drug concentration in male Sprague-Dawley rat brain to plasma at 5 mg/kg, IG measured after 0.25 hrs by LC-MS/MS analysis", "assay_type": "ADME, organism-based", "details": "brain and plasma, po, read-out: BPR"}, "[3]": {"test": "Drug concentration in male Sprague-Dawley rat brain at 5 mg/kg, IG measured after 0.25 hrs by LC-MS/MS analysis", "assay_type": "ADME, organism-based", "details": "in vivo, po"}, "[4]": {"tested_on": "Mus musculus", "test": "Antidepressant activity in chronic social defeat stress induced depressive C57BL/6J mouse model assessed as increase in time of interaction zone administered intragastrically measured after 15 mins by open field test", "assay_type": "functional, organism-based", "details": "dose 0.5-2 mg/kg"}, "[5]": {"tested_on": "Mus musculus", "test": "Antipsychotic activity in amyloid beta(1 to 42) induced cognitive impairment in mouse model assessed as reduction in exploration time at 1 mg/kg, IG measured after 24 hrs by novel object recognition test", "assay_type": "functional, organism-based"}, "[6]": {"species": "Mus musculus", "test": "Antipsychotic activity against MK-801 induced hyperlocomotion in male C57BL/6J mouse model assessed as effective dose", "assay_type": "functional"}, "[7]": {"molecular_target": "5-hydroxytryptamine receptor 1A (Homo sapiens) (UniProt P08908)", "sequence (P08908 whole entry)": "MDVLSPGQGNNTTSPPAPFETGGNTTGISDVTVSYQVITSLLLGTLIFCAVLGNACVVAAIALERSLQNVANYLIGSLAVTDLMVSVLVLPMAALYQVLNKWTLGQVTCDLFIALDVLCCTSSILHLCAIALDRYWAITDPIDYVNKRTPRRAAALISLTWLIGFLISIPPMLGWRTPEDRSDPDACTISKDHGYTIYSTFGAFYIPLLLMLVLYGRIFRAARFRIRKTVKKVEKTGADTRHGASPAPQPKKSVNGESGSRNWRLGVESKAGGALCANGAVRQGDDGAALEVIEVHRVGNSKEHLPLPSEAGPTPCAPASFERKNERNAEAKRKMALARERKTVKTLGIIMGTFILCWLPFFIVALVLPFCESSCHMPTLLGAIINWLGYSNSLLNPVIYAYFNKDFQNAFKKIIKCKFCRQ", "test": "Agonist activity at human 5-HT1A expressed in CHO cells coexpressing Galpha15 by measuring maximum efficacy at 2 uM by FLIPR calcium assay relative to control", "assay_type": "functional, cell-based", "details": "filed as agonist"}, "[8]": {"molecular_target": "5-hydroxytryptamine receptor 7 (Homo sapiens, UniProt P34969)", "sequence (P34969 whole entry)": "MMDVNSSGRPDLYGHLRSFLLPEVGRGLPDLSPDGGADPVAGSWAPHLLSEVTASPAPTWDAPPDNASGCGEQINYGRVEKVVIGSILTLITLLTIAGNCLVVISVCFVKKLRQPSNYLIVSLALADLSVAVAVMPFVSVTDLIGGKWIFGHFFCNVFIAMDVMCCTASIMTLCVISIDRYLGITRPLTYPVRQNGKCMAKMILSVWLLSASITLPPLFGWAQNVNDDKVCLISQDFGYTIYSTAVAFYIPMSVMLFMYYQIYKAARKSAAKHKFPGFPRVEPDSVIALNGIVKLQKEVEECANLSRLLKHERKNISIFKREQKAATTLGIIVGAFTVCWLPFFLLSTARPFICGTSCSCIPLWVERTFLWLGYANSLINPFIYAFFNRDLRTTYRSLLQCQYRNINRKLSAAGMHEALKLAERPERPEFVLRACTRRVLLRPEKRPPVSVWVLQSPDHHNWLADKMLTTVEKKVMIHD", "test": "Agonist activity at recombinant human 5-HT7 expressed in HEK293 cells by measuring maximum efficacy at 2 uM by FLIPR calcium assay relative to control", "assay_type": "functional, cell-based", "details": "filed as agonist"}, "[9]": {"molecular_target": "Androgen receptor (Homo sapiens) (UniProt P10275)", "sequence (P10275 whole entry)": "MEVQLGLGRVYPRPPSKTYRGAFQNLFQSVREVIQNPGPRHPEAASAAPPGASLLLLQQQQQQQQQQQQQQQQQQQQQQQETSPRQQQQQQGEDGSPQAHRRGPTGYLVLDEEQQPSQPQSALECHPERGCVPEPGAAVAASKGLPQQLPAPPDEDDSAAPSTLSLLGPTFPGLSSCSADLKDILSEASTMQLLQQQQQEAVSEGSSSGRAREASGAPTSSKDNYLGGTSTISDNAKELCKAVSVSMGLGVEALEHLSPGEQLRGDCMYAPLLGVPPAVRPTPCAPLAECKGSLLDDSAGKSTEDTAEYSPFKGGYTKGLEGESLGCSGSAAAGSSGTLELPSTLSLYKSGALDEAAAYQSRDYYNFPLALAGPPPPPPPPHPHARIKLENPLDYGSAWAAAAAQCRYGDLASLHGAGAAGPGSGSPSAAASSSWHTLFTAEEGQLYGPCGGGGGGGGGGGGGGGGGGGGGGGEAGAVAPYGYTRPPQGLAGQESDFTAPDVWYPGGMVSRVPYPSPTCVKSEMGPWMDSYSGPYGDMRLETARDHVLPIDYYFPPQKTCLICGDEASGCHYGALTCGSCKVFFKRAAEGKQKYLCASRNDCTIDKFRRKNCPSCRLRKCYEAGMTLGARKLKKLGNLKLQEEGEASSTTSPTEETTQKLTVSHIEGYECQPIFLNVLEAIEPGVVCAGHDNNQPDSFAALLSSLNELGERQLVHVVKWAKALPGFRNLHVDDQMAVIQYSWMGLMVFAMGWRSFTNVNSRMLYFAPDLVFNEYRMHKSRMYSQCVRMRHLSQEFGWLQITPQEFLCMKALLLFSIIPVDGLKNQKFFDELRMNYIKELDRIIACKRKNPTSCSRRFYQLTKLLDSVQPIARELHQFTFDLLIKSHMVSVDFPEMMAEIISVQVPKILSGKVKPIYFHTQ", "test": "Binding affinity to AR (unknown origin) at 10 uM by radioligand binding assay relative to control"}, "[10]": {"molecular_target": "Prostaglandin G/H synthase 1 (Homo sapiens) (UniProt P23219)", "sequence (P23219 whole entry)": "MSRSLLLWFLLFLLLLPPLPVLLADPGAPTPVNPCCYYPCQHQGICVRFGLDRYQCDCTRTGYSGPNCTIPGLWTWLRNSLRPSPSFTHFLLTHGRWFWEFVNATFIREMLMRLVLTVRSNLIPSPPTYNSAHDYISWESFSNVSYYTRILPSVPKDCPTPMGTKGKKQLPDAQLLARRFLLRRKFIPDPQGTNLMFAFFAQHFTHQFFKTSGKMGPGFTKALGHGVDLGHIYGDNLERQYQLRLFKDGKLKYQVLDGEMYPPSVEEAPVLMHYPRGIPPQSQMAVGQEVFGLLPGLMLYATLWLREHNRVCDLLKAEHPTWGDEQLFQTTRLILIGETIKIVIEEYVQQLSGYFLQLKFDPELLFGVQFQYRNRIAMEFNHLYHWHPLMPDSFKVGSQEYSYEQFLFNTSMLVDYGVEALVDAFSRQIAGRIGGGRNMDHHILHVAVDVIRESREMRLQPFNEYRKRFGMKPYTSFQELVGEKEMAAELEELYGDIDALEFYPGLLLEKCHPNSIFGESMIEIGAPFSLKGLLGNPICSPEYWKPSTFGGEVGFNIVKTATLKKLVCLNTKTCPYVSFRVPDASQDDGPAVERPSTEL", "test": "Binding affinity to COX1 (unknown origin) at 10 uM by radioligand binding assay relative to control"}, "[11]": {"molecular_target": "Beta-2 adrenergic receptor (Homo sapiens) (UniProt P07550)", "sequence (P07550 whole entry, looked up)": "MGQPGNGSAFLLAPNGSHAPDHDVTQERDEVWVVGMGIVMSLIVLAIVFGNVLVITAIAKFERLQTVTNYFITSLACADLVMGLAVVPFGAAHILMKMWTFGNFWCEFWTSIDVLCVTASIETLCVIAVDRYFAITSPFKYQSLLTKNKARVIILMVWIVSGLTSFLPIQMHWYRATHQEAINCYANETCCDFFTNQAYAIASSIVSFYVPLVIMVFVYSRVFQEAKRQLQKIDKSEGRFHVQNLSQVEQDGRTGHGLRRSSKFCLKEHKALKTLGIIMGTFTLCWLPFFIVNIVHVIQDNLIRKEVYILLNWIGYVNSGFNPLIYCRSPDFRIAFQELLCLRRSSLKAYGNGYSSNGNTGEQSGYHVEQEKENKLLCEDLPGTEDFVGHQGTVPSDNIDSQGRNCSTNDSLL", "test": "Binding affinity to beta 2 receptor (unknown origin) at 10 uM by radioligand binding assay relative to control"}, "[12]": {"molecular_target": "Kappa-type opioid receptor (Homo sapiens) (UniProt P41145)", "sequence (P41145 whole entry)": "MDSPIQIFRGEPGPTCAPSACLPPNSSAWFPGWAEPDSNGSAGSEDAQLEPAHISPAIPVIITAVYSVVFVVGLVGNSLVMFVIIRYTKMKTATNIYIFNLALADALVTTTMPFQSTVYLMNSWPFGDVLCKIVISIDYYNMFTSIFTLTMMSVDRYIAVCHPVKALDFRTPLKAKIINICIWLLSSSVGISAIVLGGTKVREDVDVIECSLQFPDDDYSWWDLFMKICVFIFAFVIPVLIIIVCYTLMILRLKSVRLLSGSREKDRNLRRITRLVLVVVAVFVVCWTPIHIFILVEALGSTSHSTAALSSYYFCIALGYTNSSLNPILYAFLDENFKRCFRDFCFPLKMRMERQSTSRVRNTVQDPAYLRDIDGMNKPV", "test": "Binding affinity to op-kappa receptor (unknown origin) at 10 uM by radioligand binding assay relative to control"}, "[13]": {"test": "Mutagenicity in Salmonella typhimurium TA100 by Ames test", "assay_type": "toxicity", "details": "salmonella enterica subsp. enterica serovar typhimurium"}, "[14]": {"test": "Toxicity in Sprague-Dawley rat assessed as good general health at 2.5 to 7.5 mg/kg, po administered once daily for 4 weeks", "assay_type": "organism-based", "details": "in vivo, 672 h, dose 2.5-7.5 mg/kg"}, "[15]": {"test": "Toxicity in Sprague-Dawley rat assessed as catalepsy 2.5 to 7.5 mg/kg, po administered once daily for 4 weeks", "assay_type": "organism-based", "details": "in vivo, 672 h, dose 2.5-7.5 mg/kg"}, "[16]": {"test": "Toxicity in male Sprague-Dawley rat assessed as suppression of food consumption at 7.5 mg/kg, po administered once daily for 4 weeks and measured after 4 weeks", "assay_type": "organism-based", "details": "in vivo, 1344 h, time 8 weeks"}, "[17]": {"test": "Toxicity in female Sprague-Dawley rat assessed as suppression of body weight gain at 7.5 mg/kg, po administered once daily for 4 weeks and measured after 4 weeks", "assay_type": "organism-based", "details": "in vivo, 1344 h, time 8 weeks"}, "[18]": {"test": "Toxicity in female Sprague-Dawley rat assessed as piloerection at 7.5 mg/kg, po administered once daily for 4 weeks", "assay_type": "organism-based", "details": "in vivo, 672 h"}, "[19]": {"test": "Toxicity in male Sprague-Dawley rat assessed as irritability at 2.5 mg/kg, po administered once daily for 4 weeks", "assay_type": "organism-based", "details": "in vivo, 672 h"}, "[20]": {"test": "Toxicity in male Sprague-Dawley rat assessed as irritability at 2.5 mg/kg, po administered once daily for 4 weeks and measured after 4 weeks", "assay_type": "organism-based", "details": "in vivo, 1344 h, time 8 weeks"}, "[21]": {"test": "Toxicity in male Sprague-Dawley rat assessed as change in organ weight at 2.5 to 7.5 mg/kg, po administered once daily for 4 weeks and measured after 4 weeks", "assay_type": "organism-based", "details": "in vivo, 1344 h, dose 2.5-7.5 mg/kg, time 8 weeks"}, "[22]": {"test": "Toxicity in female Sprague-Dawley rat assessed as change in clinical chemistry at 2.5 to 7.5 mg/kg, po administered once daily for 4 weeks and measured after 4 weeks", "assay_type": "organism-based", "details": "in vivo, 1344 h, dose 2.5-7.5 mg/kg, time 8 weeks"}, "[23]": {"test": "Toxicity in male Sprague-Dawley rat assessed as minimal corneal neovascularization at 2.5 to 7.5 mg/kg, po administered once daily for 4 weeks and measured after 4 weeks", "assay_type": "organism-based", "details": "in vivo, 1344 h, dose 2.5-7.5 mg/kg, time 8 weeks"}, "[24]": {"test": "Toxicity in male Sprague-Dawley rat assessed as corneal epithelial degeneration at 2.5 to 7.5 mg/kg, po administered once daily for 4 weeks and measured after 4 weeks", "assay_type": "organism-based", "details": "in vivo, 1344 h, dose 2.5-7.5 mg/kg, time 8 weeks"}, "[25]": {"test": "Toxicity in female Beagle dog assessed as change in body weight at 0.75 to 2.5 mg/kg, IG administered once daily for 4 weeks and measured after 4 weeks", "assay_type": "organism-based, Canis lupus familiaris", "details": "in vivo, po, 1344 h, dose 0.75-2.5 mg/kg, time 8 weeks"}, "[26]": {"test": "Toxicity in female Beagle dog assessed as change in food consumption at 0.75 to 2.5 mg/kg, IG administered once daily for 4 weeks and measured after 4 weeks", "assay_type": "organism-based, Canis lupus familiaris", "details": "in vivo, po, 1344 h, dose 0.75-2.5 mg/kg, time 8 weeks"}, "[27]": {"test": "Toxicity in female Beagle dog assessed as change in organ weight at 0.75 to 2.5 mg/kg, IG administered once daily for 4 weeks and measured after 4 weeks", "assay_type": "organism-based, Canis lupus familiaris", "details": "in vivo, po, 1344 h, dose 0.75-2.5 mg/kg, time 8 weeks"}, "[28]": {"test": "Toxicity in male Beagle dog assessed as change in organ weight at 0.75 to 2.5 mg/kg, IG administered once daily for 4 weeks and measured after 4 weeks", "assay_type": "organism-based, Canis lupus familiaris", "details": "in vivo, po, 1344 h, dose 0.75-2.5 mg/kg, time 8 weeks"}, "[29]": {"test": "Toxicity in female Beagle dog assessed as somnolence at 2.5 mg/kg, IG administered once daily for 4 weeks", "assay_type": "organism-based, Canis lupus familiaris", "details": "in vivo, po, 672 h"}, "[30]": {"test": "Toxicity in male Beagle dog assessed as somnolence at 2.5 mg/kg, IG administered once daily for 4 weeks", "assay_type": "organism-based, Canis lupus familiaris", "details": "in vivo, po, 672 h"}, "[31]": {"test": "Toxicity in female Beagle dog assessed as somnolence at 2.5 mg/kg, IG administered once daily for 4 weeks and measured after 4 weeks", "assay_type": "organism-based, Canis lupus familiaris", "details": "in vivo, po, 1344 h, time 8 weeks"}, "[32]": {"test": "Toxicity in male Beagle dog assessed as somnolence at 2.5 mg/kg, IG administered once daily for 4 weeks and measured after 4 weeks", "assay_type": "organism-based, Canis lupus familiaris", "details": "in vivo, po, 1344 h, time 8 weeks"}, "[33]": {"test": "Toxicity in female Beagle dog assessed as minimal decrease activity at 2.5 mg/kg, IG administered once daily for 4 weeks and measured after 4 weeks", "assay_type": "organism-based, Canis lupus familiaris", "details": "in vivo, po, 1344 h, time 8 weeks"}},
  "note": "Activity calls are given as the source filed them. No cut-off for these calls is given here.",
  "data": [
    {"smiles": "c1cc2c(s1)[C@@H]1CNCCN1CC2", "values": [
      {"measurement": "EC50", "setting": "[1]", "value": 246, "unit": "nM"},
      {"measurement": "Kp at 0.25 h", "setting": "[2]", "value": 8.45},
      {"measurement": "Ct", "setting": "[3]", "value": 39250, "unit": "nmol/kg"},
      {"measurement": "Activity", "setting": "[4]", "value": "Dose-dependent-effect"},
      {"measurement": "Activity", "setting": "[5]", "value": "Active"},
      {"measurement": "ED50", "setting": "[6]", "value": 2.81, "unit": "mg/kg"},
      {"measurement": "Emax", "setting": "[7]", "value": 48.3, "unit": "%"},
      {"measurement": "Emax", "setting": "[8]", "value": 65.5, "unit": "%"},
      {"measurement": "Activity", "setting": "[9]", "value": -5.37, "unit": "%"},
      {"measurement": "Activity", "setting": "[10]", "value": 33.3, "unit": "%"},
      {"measurement": "Activity", "setting": "[11]", "value": -12.2, "unit": "%"},
      {"measurement": "Activity", "setting": "[12]", "value": 4.07, "unit": "%"},
      {"measurement": "Activity", "setting": "[13]", "value": "Non-toxic"},
      {"measurement": "Activity", "setting": "[14]", "value": "Non-toxic"},
      {"measurement": "Activity", "setting": "[15]", "value": "Non-toxic"},
      {"measurement": "Activity", "setting": "[16]", "value": "Non-toxic"},
      {"measurement": "Activity", "setting": "[17]", "value": "Toxic"},
      {"measurement": "Activity", "setting": "[18]", "value": "Toxic"},
      {"measurement": "Activity", "setting": "[19]", "value": "Toxic"},
      {"measurement": "Activity", "setting": "[20]", "value": "Non-toxic"},
      {"measurement": "Activity", "setting": "[21]", "value": "Non-toxic"},
      {"measurement": "Activity", "setting": "[22]", "value": "Non-toxic"},
      {"measurement": "Activity", "setting": "[23]", "value": "Non-toxic"},
      {"measurement": "Activity", "setting": "[24]", "value": "Non-toxic"},
      {"measurement": "Activity", "setting": "[25]", "value": "Non-toxic"},
      {"measurement": "Activity", "setting": "[26]", "value": "Non-toxic"},
      {"measurement": "Activity", "setting": "[27]", "value": "Non-toxic"},
      {"measurement": "Activity", "setting": "[28]", "value": "Non-toxic"},
      {"measurement": "Activity", "setting": "[29]", "value": "Toxic"},
      {"measurement": "Activity", "setting": "[30]", "value": "Toxic"},
      {"measurement": "Activity", "setting": "[31]", "value": "Non-toxic"},
      {"measurement": "Activity", "setting": "[32]", "value": "Non-toxic"},
      {"measurement": "Activity", "setting": "[33]", "value": "Non-toxic"}
    ]}
  ]
}
